Here are results for eight molecules from patent US20260000678A1, “PHARMACEUTICAL COMPOSITION FOR PREVENTING, SUPPRESSING, OR TREATING SYMPTOM ASSOCIATED WITH PSEUDO-ALLERGIC REACTION” (Takasaki University of Health and Welfare, priority 2022, published 2026).

“Also recorded” adds a separate entry of the source.

The test system of one assay is PMCs. Nature of the assay: Degranulation of PMCs (β-hexosaminidase release rate). The class given is cell-based, mouse. As to conditions: for Degranulation of PMCs by the stimulant alone: 37° C. 10 minutes, DNP-HSA on IgE-sensitized PMCs, BzATP 10 uM; for Effect on IgE receptor stimulation or degranulation by C48/80: α,β-methyl mATP 10 uM, ADP 100 uM, UDP-Glucose 100 uM.

Assay [1] relates to PMCs derived from P2X4 receptor-deficient mice. Nature of the assay: Degranulation of PMCs derived from P2X4 receptor-deficient mice. The class given is cell-based, mouse. The following applies: DNP-HSA or C48/80 stimulation with 100 uM ATP. On the procedure: The abdominal cavity of wild-type C57BL/6 mice (7- to 8-week-old, male; n=4) or P2X4 receptor-deficient mice (7- to 8-week-old, male; n=4) was washed with 4 mL of RPMI1640 medium to prepare peritoneal cells. The cells were cultured in RPMI1640 medium containing 10% FBS, penicillin (100 unit/ml), streptomycin (100 μg/ml), recombinant mouse IL-3 (10 ng/ml, manufactured by PeproTech, Inc.), and 10 ng/mL of SCF (manufactured by PeproTech, Inc.) for 14 days to be used for the experiment. 95% or more of the prepared PMCs were double positive for c-KIT and FcεRI (FACSCant II, manufactured by BD Biosciences).
Anti-DNP-IgE antibody (clone: SPE-7, manufactured by Sigma-Aldrich, Inc.) was added to a culture solution containing PMCs derived from wild-type C57BL/6 mice or P2X4 receptor-deficient mice so that the concentration reached 50 ng/ml, and the PMCs were sensitized overnight. The PMCs were washed with PBS(−) and suspended in Krebs Ringer-HEPES Buffer containing 0.1% BSA (NaCl 130 mM, KCl 4.7 mM, NaHCO3 4.0 mM, KH2P4 1.2 mM, Glucose 11.5 mM, HEPES 10 mM, and CaCl2—H2O 1.8 mM) so that the concentration reached 1×10^6 cell/mL. […] 50 mM carbonate buffer (pH 10.0, 100 uL) was added to stop the enzyme reaction of β-hexosaminidase, and absorbance was measured at 405/655 nm using an absorbance microplate reader Sunrise (manufactured by Tecan Trading AG). […]

The next assay concerns wild-type C57BL/6 mice. Kind of assay: Passive systemic anaphylaxis caused by C48/80 (rectal temperature). Type of assay: in vivo, mouse. As to conditions: 10 mg/kg intraperitoneally 15 minutes before C48/80 (50 μg i.v.); vs vehicle; listed as Compound B. How it is done: Wild-type C57BL/6 mice (9-week-old, male; n=8) and P2X4 receptor-deficient mice (10-week-old, male; n=7) were intravenously administered with 100 μL of physiological saline containing 50 μg of C48/80 (manufactured by Sigma-Aldrich, Inc.). Thereafter, the rectal temperatures of the mice were measured with a digital thermometer (manufactured by Physitemp Instruments, LLC.) every 5 minutes for a period of 60 minutes.
Compound B, a P2X4 receptor antagonist, was used after being dissolved in physiological saline at a concentration of 10 mg/ml. In a passive systemic anaphylaxis test using the wild-type C57BL/6 mice of Example 1-1), 10 mg/kg of Compound B or a solvent thereof (vehicle) was intraperitoneally administered 15 minutes before administration of C48/80. […] From this, it was considered that the symptom of the pseudo-allergy can be reduced by the P2X4 receptor antagonist.

[2] abbreviates: wild-type PMCs, C48/80 10 uM, Substance P 100 uM, PAMP-12 10 uM, vancomycin 1 mM.
[3] abbreviates: dose dependency, DNP-HSA 0, 1, 5, or 10 μg/mL.

As for Substance P, the “Degranulation of PMCs by the stimulant alone” value with PMCs (setting [2]) is on record as “induced”. In the case of `CN[C@H](CC(C)C)C(=O)N[C@H]1C(=O)N[C@@H](CC(N)=O)C(=O)N[C@H]2C(=O)N[C@H]3C(=O)N[C@H](C(=O)N[C@H](C(=O)O)c4cc(O)cc(O)c4-c4cc3ccc4O)[C@H](O)c3ccc(c(Cl)c3)Oc3cc2cc(c3O[C@@H]2O[C@H](CO)[C@@H](O)[C@H](O)[C@H]2O[C@H]2C[C@](C)(N)[C@H](O)[C@H](C)O2)Oc2ccc(cc2Cl)[C@H]1O` [vancomycin], the “Degranulation of PMCs by the stimulant alone” value with PMCs (setting [2]) is given as “induced”. With `Nc1ncnc2c1ncn2[C@@H]1O[C@H](COP(=O)(O)CP(=O)(O)OP(=O)(O)O)[C@@H](O)[C@H]1O` [α,β-methyl mATP], in the assay with PMCs, the “Effect on IgE receptor stimulation or degranulation by C48/80” value was “did not affect”. `Nc1ncnc2c1ncn2[C@@H]1O[C@H](COP(=O)(O)OP(=O)(O)OP(=O)(O)O)[C@@H](O)[C@H]1O` [ATP]: the “Effect of ATP on degranulation of PMCs by MrgprB2 stimulation with C48/80” value with PMCs (100 uM ATP, C48/80 10 uM, wild-type PMCs) was “significantly promoted”. The “Effect of ATP on degranulation of PMCs by IgE receptor stimulation (DNP-HSA)” value with PMCs (100 uM ATP, IgE (SPE-7)-sensitized wild-type PMCs) was “significantly promoted”. Also, the “Effect of ATP on dose dependency of degranulation by MrgprB2 stimulation with C48/80” value in the assay on PMCs (C48/80 0, 1, 10, or 100 uM) is recorded as “enhanced the maximum response; also recorded: significantly increased the degree of degranulation”. In addition, the “Effect of ATP on degranulation of PMCs by Substance P, PAMP-12 and vancomycin” value in the assay on PMCs (Substance P 100 uM, PAMP-12 10 uM, vancomycin 1 mM) is “promoted; also recorded: enhanced”. In the assay on PMCs (setting [3]), the “Effect of ATP on degranulation by IgE receptor stimulation, DNP-HSA at a high concentration” value is “not observed” and the “Effect of ATP on degranulation by IgE receptor stimulation, DNP-HSA at a low concentration” value was “promoted degranulation”. Further, in assay [1], the “Effect of promoting degranulation of ATP in P2X4 receptor-deficient PMCs” value is listed as “not observed”. On to BzATP, for which the “Degranulation of PMCs by the stimulant alone” value in the assay on PMCs (setting [2]) is “induced degranulation”. Consider `Nc1ncnc2c1ncn2[C@@H]1O[C@H](COP(=O)(O)OP(=O)(O)O)[C@@H](O)[C@H]1O` [ADP], for which the “Effect on IgE receptor stimulation or degranulation by C48/80” value in the assay with PMCs is reported as “did not affect”. `O=C1CC(=O)N(c2ccc(NC(=O)c3ccccc3I)cc2)c2ccc3ccccc3c2N1` [Compound B48, 5-[4-(2-iodobenzoylamino)phenyl]-1H-naphtho[1,2-b][1,4]diazepine-2,4(3H,5H)-dione]: in the assay on PMCs (Compound at 10 uM before the degranulation reaction, C48/80 10 uM with or without 100 uM ATP, vs vehicle, listed as Compound B), the “Suppression of the promotion of degranulation of PMCs by ATP” value is “significantly suppressed”. Besides, in the assay on wild-type C57BL/6 mice, the “Suppression of the decrease in rectal temperature by C48/80” value is reported as “significantly suppressed”. As for “Proadrenomedullin N-terminal 20 peptide [PAMP-12]”, the “Degranulation of PMCs by the stimulant alone” value in the assay with PMCs (setting [2]) was “induced”.
